Assay results published in patent US11116760B2 (Gilead Sciences, Inc., priority 2018, dated 2021).

Molecular target: α4β7 integrin (Homo sapiens (Human), UniProt P13612+P26010)
Assay: α4β7 Integrin Cell Capture Assay
Type: cell-based
Experimental: α4β7 Integrin Cell Capture Assay
The potency of inhibitors in preventing α4β7 integrin interaction with MadCAM-1 was measured by monitoring the capture of α4β7 integrin expressing cells on a recombinant MadCAM-1 extracellular domain-coated plate. […] The plates were then washed with PBS and blocked with 3% BSA for 2 hours before being washed again.
RPM18866 cells were spun down and re-suspended in assay medium (DMEM+0.5% FBS+0.5 mM MnCl2) at a density of 0.5×10^6 cells/mL. […] The plates were incubated at 37° C. for 1 hour. 50 μL of cells were transferred to the blocked, MadCAM-1-coated plates and incubated for 30 minutes at 37° C. […] The plates were incubated for 90 minutes at room temperature. The plates were then washed 3 times with 70 μL of PBS per well and imaged on a Cellomics ArrayScan instrument. The cells that were bound to the plate were counted and plotted against the compound concentration to determine the EC50 of the test compounds.

[1] = RPMI8866 cells captured on MadCAM-1 extracellular domain-coated plate
[2] = Table 2, capture of α4β7 expressing RPM18866 cells on MadCAM-1 extracellular domain-coated plate
[3] = Table 1, capture of α4β7 expressing RPM18866 cells on MadCAM-1 extracellular domain-coated plate

Chain of α4β7 integrin (P13612 34-1032): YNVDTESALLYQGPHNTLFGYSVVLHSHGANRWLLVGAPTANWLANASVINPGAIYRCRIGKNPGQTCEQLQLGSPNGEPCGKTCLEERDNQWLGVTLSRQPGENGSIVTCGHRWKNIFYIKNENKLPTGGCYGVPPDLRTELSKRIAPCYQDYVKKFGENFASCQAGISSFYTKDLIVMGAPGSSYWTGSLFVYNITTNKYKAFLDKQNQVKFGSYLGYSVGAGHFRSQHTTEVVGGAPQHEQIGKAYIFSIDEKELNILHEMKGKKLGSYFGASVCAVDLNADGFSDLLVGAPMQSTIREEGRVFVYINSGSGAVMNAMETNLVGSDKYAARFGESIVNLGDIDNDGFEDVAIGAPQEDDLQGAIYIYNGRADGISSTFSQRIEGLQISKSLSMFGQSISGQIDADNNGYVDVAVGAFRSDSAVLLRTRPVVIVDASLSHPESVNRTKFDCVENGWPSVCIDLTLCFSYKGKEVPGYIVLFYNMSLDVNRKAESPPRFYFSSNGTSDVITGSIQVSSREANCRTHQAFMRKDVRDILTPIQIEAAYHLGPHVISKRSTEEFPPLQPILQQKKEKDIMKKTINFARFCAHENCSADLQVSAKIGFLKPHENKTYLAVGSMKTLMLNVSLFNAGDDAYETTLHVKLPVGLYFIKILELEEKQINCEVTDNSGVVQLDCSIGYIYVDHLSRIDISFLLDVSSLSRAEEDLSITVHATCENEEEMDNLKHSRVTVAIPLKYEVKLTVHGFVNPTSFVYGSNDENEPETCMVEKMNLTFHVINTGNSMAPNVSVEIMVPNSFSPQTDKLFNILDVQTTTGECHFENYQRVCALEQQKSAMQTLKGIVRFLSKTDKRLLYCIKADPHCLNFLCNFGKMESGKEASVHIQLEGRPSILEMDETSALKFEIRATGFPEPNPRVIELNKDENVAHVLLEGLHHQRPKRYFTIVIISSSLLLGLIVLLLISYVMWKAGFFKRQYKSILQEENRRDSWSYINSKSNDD
Chain of α4β7 integrin (P26010 20-798): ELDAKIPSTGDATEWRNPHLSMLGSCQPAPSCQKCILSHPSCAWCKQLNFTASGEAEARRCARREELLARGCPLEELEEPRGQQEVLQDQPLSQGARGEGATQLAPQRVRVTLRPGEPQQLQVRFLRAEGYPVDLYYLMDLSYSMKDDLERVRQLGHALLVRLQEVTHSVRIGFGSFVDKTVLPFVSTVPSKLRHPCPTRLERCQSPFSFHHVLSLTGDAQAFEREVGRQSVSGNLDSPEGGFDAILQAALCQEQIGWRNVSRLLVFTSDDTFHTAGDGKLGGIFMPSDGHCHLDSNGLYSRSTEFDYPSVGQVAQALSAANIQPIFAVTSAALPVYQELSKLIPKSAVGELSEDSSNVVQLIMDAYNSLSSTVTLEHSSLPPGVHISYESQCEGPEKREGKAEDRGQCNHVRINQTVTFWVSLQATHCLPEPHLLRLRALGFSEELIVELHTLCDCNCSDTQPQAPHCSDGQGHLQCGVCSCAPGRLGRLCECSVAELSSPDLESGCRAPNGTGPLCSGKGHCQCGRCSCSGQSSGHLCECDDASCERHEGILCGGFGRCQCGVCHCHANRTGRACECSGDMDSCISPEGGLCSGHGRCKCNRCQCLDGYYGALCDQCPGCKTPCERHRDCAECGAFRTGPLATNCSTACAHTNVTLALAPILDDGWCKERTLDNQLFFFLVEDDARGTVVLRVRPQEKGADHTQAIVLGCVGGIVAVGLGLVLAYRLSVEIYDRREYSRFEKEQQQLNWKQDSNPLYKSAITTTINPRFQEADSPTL

| EC50 [2] | Compound | further results |
| --- | --- | --- |
| – | Cc1cc(N2CCOC[C@@H]2C(F)(F)F)cc(F)c1C(=O)N[C@@H](Cc1ccc(-c2cnc(C)n(C)c2=O)c2ncccc12)C(=O)O [Example 467] | EC50 [1]: 0.238 nM |
| – | CC[C@@]1(C)CN(c2cc(F)c(C(=O)N[C@@H](Cc3ccc(-c4c(C(F)(F)F)cc(C)n(C)c4=O)c4ncccc34)C(=O)O)c(F)c2)CCO1 [Example 445] | EC50 [1]: 0.984 nM |
| 26.8 nM | O=C(N[C@@H](Cc1ccc(-c2c(Cl)cc(F)cc2Cl)c2ncccc12)C(=O)O)c1c(F)cc(N[C@H](c2ccccc2)C(F)(F)F)cc1F [Example 282] | – |
| 18.8 nM | CC[C@@H](Nc1cc(F)c(C(=O)N[C@@H](Cc2ccc(-c3nccc(C)c3Cl)c3ncccc23)C(=O)O)c(F)c1)C(F)(F)F [Example 325] | – |
| – | CS(=O)(=O)Cc1cc(F)c(C(=O)N[C@@H](Cc2ccc(-c3ccc(C#N)cc3Cl)c3ncccc23)C(=O)O)c(F)c1 [Example 48, (S)-3-(8-(2-chloro-4-cyanophenyl)quinolin-5-yl)-2-(2,6-difluoro-4-((methylsulfonyl)methyl)benzamido)propanoic acid] | EC50 [3]: 52.1 nM |
| – | CC[C@@H](Nc1cc(F)c(C(=O)N[C@@H](Cc2ccc(-c3cc(OC)cn(C)c3=O)c3ncccc23)C(=O)O)c(F)c1)C(F)(F)F [Example 481] | EC50 [1]: 1.48 nM |
| 63.4 nM | N#Cc1ccc(-c2ccc(C[C@H](NC(=O)c3c(F)cc(C(=O)NC4CC4)cc3F)C(=O)O)c3cccnc23)c(Cl)c1 [Example 197] | – |
| 2.8 nM | Cc1c(N(C)C)cn(C)c(=O)c1-c1ccc(C[C@H](NC(=O)c2c(F)cc(N3CCOC[C@@H]3C(F)(F)F)cc2F)C(=O)O)c2cccnc12 [Example 242] | – |
| 19.3 nM | CC[C@@H](Nc1cc(F)c(C(=O)N[C@@H](Cc2ccc(-c3ncc(C)cc3Cl)c3ncccc23)C(=O)O)c(F)c1)C(F)(F)F [Example 327] | – |
| – | Cn1c(=O)c(-c2ccc(C[C@H](NC(=O)c3c(F)cc(N4CCOC[C@@H]4C(F)(F)F)cc3F)C(=O)O)c3cccnc23)nc2ccccc21 [Example 484] | EC50 [1]: 0.143 nM |
| 4.4 nM | Cc1ccc(C(F)(F)F)c(-c2ccc(C[C@H](NC(=O)c3c(F)cc(N4CCOC[C@@H]4C(F)(F)F)cc3F)C(=O)O)c3cccnc23)n1 [Example 270] | – |
| 1.4 nM | Cc1cc(C(F)(F)F)c(-c2ccc(C[C@H](NC(=O)c3c(F)cc(N4C[C@H](C)OC[C@@H]4C(F)(F)F)cc3F)C(=O)O)c3cccnc23)c(=O)n1C [Example 198] | – |
| – | CC[C@@H](Nc1cc(F)c(C(=O)N[C@@H](Cc2ccc(-n3c(=O)c4cc(N(C)C)ccc4n(C)c3=O)c3ncccc23)C(=O)O)c(F)c1)C(F)(F)F [Example 108, (S)-2-(2,6-difluoro-4-(((R)-1,1,1-trifluorobutan-2-yl)amino)benzamido)-3-(8-(6-(dimethylamino)-1-methyl-2,4-dioxo-1,4-dihydroquinazolin-3(2H)-yl)quinolin-5-yl)propanoic acid] | EC50 [3]: 1 nM |
| – | CC[C@@H](N1CCCc2c1cc(F)c(C(=O)N[C@@H](Cc1ccc(-c3c(C(F)(F)F)cc(C)n(C)c3=O)c3ncccc13)C(=O)O)c2F)C(F)(F)F [Example 146, (S)-2-(5,7-difluoro-1-((R)-1,1,1-trifluorobutan-2-yl)-1,2,3,4-tetrahydroquinoline-6-carboxamido)-3-(8-(1,6-dimethyl-2-oxo-4-(trifluoromethyl)-1,2-dihydropyridin-3-yl)quinolin-5-yl)propanoic acid] | EC50 [3]: 0.6 nM |
| – | N#Cc1ccc(-c2ccc(C[C@H](NC(=O)c3c(F)cc(N4CCC4C(F)(F)F)cc3F)C(=O)O)c3cccnc23)c(Cl)c1 (stereo partly drawn) [Example 78, (2S)-3-(8-(2-chloro-4-cyanophenyl)quinolin-5-yl)-2-(2,6-difluoro-4-(2-(trifluoromethyl)azetidin-1-yl)benzamido)propanoic acid] | EC50 [3]: 134 nM |
| – | Cc1cc(N2CCOC[C@@H]2C(F)(F)F)cc(F)c1C(=O)N[C@@H](Cc1ccc(-n2c(=O)c3ccncc3n(C)c2=O)c2ncccc12)C(=O)O (single isomer, unassigned) [Example 407] | EC50 [1]: 0.162 nM |
| – | CCOCc1cc(OC)c(-c2ccc(C[C@H](NC(=O)c3c(F)cc(C#N)cc3F)C(=O)O)c3cccnc23)c(OC)c1 [Example 42, (S)-2-(4-cyano-2,6-difluorobenzamido)-3-(8-(4-(ethoxymethyl)-2,6-dimethoxyphenyl)quinolin-5-yl)propanoic acid] | EC50 [3]: 13.4 nM |
| – | CCOCc1cc(OC)c(-c2ccc(C[C@H](NC(=O)c3c(F)cccc3F)C(=O)O)c3cc(C(F)(F)F)cnc23)c(OC)c1 [Example 37, (S)-2-(2,6-difluorobenzamido)-3-(8-(4-(ethoxymethyl)-2,6-dimethoxyphenyl)-3-(trifluoromethyl)quinolin-5-yl)propanoic acid] | EC50 [3]: 69.6 nM |
| 0.8 nM | Cc1cc(C(F)(F)F)c(-c2ccc(C[C@H](NC(=O)c3c(F)cc(N4CCCC[C@@H]4C(F)(F)F)cc3F)C(=O)O)c3cccnc23)c(=O)n1C (atropisomer, axis not shown) [Example 344] | – |
| – | Cc1cc(N2CCOC[C@@H]2C(F)(F)F)cc(F)c1C(=O)N[C@@H](Cc1ccc(-n2c(=O)c3nccnc3n(C)c2=O)c2ncccc12)C(=O)O [Example 404, (S)-2-(2-fluoro-6-methyl-4-((R)-3-(trifluoromethyl)morpholino)benzamido)-3-(8-(1-methyl-2,4-dioxo-1,4-dihydropteridin-3(2H)-yl)quinolin-5-yl)propanoic acid] | EC50 [1]: 0.1 nM |

| EC50 [2] | Compound | further results |
| --- | --- | --- |
| – | COc1cnc2c(=O)n(-c3ccc(C[C@H](NC(=O)c4c(C)cc(N5CCOC[C@@H]5C(F)(F)F)cc4F)C(=O)O)c4cccnc34)c(=O)n(C)c2c1 [Example 415] | EC50 [1]: 0.091 nM |
| – | Cc1cc(N2CCOC[C@@H]2C(F)(F)F)cc(F)c1C(=O)N[C@@H](Cc1ccc(-c2c(C(F)(F)F)cc(C)n(C)c2=O)c2ncccc12)C(=O)O [Example 141, (S)-3-(8-(1,6-dimethyl-2-oxo-4-(trifluoromethyl)-1,2-dihydropyridin-3-yl)quinolin-5-yl)-2-(2-fluoro-6-methyl-4-((R)-3-(trifluoromethyl)morpholino)benzamido)propanoic acid] | EC50 [3]: 0.1 nM |
| 2.1 nM | Cc1cc(C(F)(F)F)c(-c2ccc(C[C@H](NC(=O)c3c(F)cccc3F)C(=O)O)c3cccnc23)c(=O)n1C [Example 218] | – |
| – | CCOCc1cc(OC)c(-c2c(F)cc(C[C@H](NC(=O)c3c(F)cccc3F)C(=O)O)c3cccnc23)c(OC)c1 [Example 40, (S)-2-(2,6-difluorobenzamido)-3-(8-(4-(ethoxymethyl)-2,6-dimethoxyphenyl)-7-fluoroquinolin-5-yl)propanoic acid] | EC50 [3]: 8.6 nM |
| – | Cc1cccc(F)c1C(=O)N[C@@H](Cc1ccc(-c2ccc(C#N)cc2Cl)c2ncccc12)C(=O)O [Example 1, (S)-3-(8-(2-chloro-4-cyanophenyl)quinolin-5-yl)-2-(2-fluoro-6-methylbenzamido)propanoic acid] | EC50 [3]: 21.2 nM |
| 1.1 nM | Cc1c(-c2ccc(C[C@H](NC(=O)c3c(F)cc(N4CCS(=O)(=O)[C@@H](C)C4)cc3F)C(=O)O)c3cccnc23)c(=O)n(C)c(=O)n1C [Example 226] | – |
| 20.1 nM | CCOCc1cc(OC)c(-c2ccc(C[C@H](NC(=O)c3c(F)cc(NC(C)=O)cc3F)C(=O)O)c3cccnc23)c(OC)c1 [Example 329] | – |
| 1.7 nM | Cc1nc(-c2ccc(C[C@H](NC(=O)c3c(F)cc(N4CCOC[C@@H]4C(F)(F)F)cc3F)C(=O)O)c3cccnc23)nc2cc(F)ccc12 [Example 206] | – |
| 97.8 nM | Cc1[nH]c2cc(Cl)c(C(=O)N[C@@H](Cc3ccc(-c4ccc(C#N)cc4Cl)c4ncccc34)C(=O)O)c(Cl)c2c1C [Example 174] | – |
| 0.3 nM | Cc1cc(C(F)(F)F)c(-c2ccc(C[C@H](NC(=O)c3c(F)cc(N4CCOC[C@@H]4C(F)(F)F)cc3F)C(=O)O)c3cc(F)cnc23)c(=O)n1C [Example 159] | – |
| 28 nM | O=C(N[C@@H](Cc1ccc(-c2cc(F)c(F)cc2OC2CCC2)c2ncccc12)C(=O)O)c1c(F)cccc1F [Example 177] | – |
| 3.1 nM | CC[C@@H](Nc1cc(F)c(C(=O)N[C@@H](Cc2ccc(-c3nccc(C)c3C(F)(F)F)c3ncccc23)C(=O)O)c(F)c1)C(F)(F)F [Example 252] | – |
| – | Cc1cc(N2CCOC[C@@H]2C(F)(F)F)cc(F)c1C(=O)N[C@@H](Cc1ccc(-n2c(=O)c3c(n(C)c2=O)COCC3)c2ncccc12)C(=O)O [Example 411] | EC50 [1]: 0.06 nM |
| – | Cc1cc(N2CCOC[C@@H]2C(F)(F)F)cc(F)c1C(=O)N[C@@H](Cc1ccc(-n2c(=O)c3c(n(C)c2=O)CCOC3)c2ncccc12)C(=O)O [Example 412] | EC50 [1]: 0.091 nM |
| 1.4 nM | Nc1ccc(C(F)(F)F)c(-c2ccc(C[C@H](NC(=O)c3c(F)cc(N4CCOC[C@@H]4C(F)(F)F)cc3F)C(=O)O)c3cccnc23)n1 [Example 194] | – |
| 4.4 nM | CC[C@@H](Nc1cc(F)c(C(=O)N[C@@H](Cc2ccc(-c3c(C(F)(F)F)cc(C)n(C)c3=O)c3nc(C(F)(F)F)ccc23)C(=O)O)c(F)c1)C(F)(F)F [Example 269] | – |
| 1 nM | CC[C@@H](Nc1cc(F)c(C(=O)N[C@@H](Cc2ccc(-c3c(OC)ccn(C)c3=O)c3ncccc23)C(=O)O)c(F)c1)C(F)(F)F [Example 186] | – |
| – | N#Cc1ccccc1-c1ccc(C[C@H](NC(=O)c2c(F)cc(NS(=O)(=O)c3ccc(-c4ccnc(F)c4)cc3)cc2F)C(=O)O)c2cccnc12 [Example 59, (S)-3-(8-(2-cyanophenyl)quinolin-5-yl)-2-(2,6-difluoro-4-((4-(2-fluoropyridin-4-yl)phenyl)sulfonamido)benzamido)propanoic acid] | EC50 [3]: 3.2 nM |
| 2.2 nM | O=C(N[C@@H](Cc1ccc(-c2nccc(OC3CC3)c2C(F)(F)F)c2ncccc12)C(=O)O)c1c(F)cc(N2CCOC[C@@H]2C(F)(F)F)cc1F [Example 233] | – |
